Test results taken from publication PMC10233829 (ACS Omega, 2023).
In brackets after ≈: the same amount, converted by molar mass. Like-named read-outs stand apart in the source and are kept apart here.

Experiments:
[1] = system: S. aureus NCTC 4163; assay: MIC, twofold microdilution, standard strain; format: cell-based; conditions: Staphylococcus aureus, NCTC4163, 18 h
[2] = system: S. aureus ATCC 25923; assay: MIC, twofold microdilution, standard strain; format: cell-based; conditions: Staphylococcus aureus, ATCC25923, 18 h
[3] = system: S. aureus ATCC 6538; assay: MIC, twofold microdilution, standard strain; format: cell-based, Staphylococcus aureus; conditions: Staphylococcus aureus, ATCC6538; standard strain, 18 h
[4] = system: S. aureus ATCC 29213; assay: MIC, twofold microdilution, standard strain; format: cell-based; conditions: Staphylococcus aureus, ATCC29213, 18 h
[5] = system: S. epidermidis ATCC 12228; assay: MIC, twofold microdilution, standard strain; format: cell-based; conditions: Staphylococcus epidermidis, ATCC12228, 18 h
[6] = system: S. epidermidis ATCC 35984; assay: MIC, twofold microdilution, standard strain; format: cell-based; conditions: Staphylococcus epidermidis, ATCC35984, 18 h
[7] = system: P. aeruginosa ATCC 15442; assay: MIC, twofold microdilution, standard strain; format: cell-based, Pseudomonas aeruginosa; conditions: Pseudomonas aeruginosa, ATCC15442; standard strain, 18 h
[8] = system: E. coli ATCC 25922; assay: MIC, twofold microdilution, standard strain; format: cell-based, Escherichia coli; conditions: Escherichia coli, ATCC25922; standard strain, 18 h
[9] = system: S. aureus 180; assay: MIC, twofold microdilution, clinical strain; format: cell-based; conditions: Staphylococcus aureus, 18 h
[10] = system: S. aureus 5595; assay: MIC, twofold microdilution, clinical strain; format: cell-based; conditions: Staphylococcus aureus, 18 h
[11] = system: S. aureus T5595; assay: MIC, twofold microdilution, clinical strain; format: cell-based, Staphylococcus aureus; conditions: for MIC: Staphylococcus aureus, T5595, 18 h
[12] = system: S. aureus T5591; assay: MIC, twofold microdilution, clinical strain; format: cell-based, Staphylococcus aureus; conditions: for MIC: Staphylococcus aureus, T5591, 18 h
[13] = system: S. epidermidis 4341; assay: MIC, twofold microdilution, clinical strain; format: cell-based; conditions: Staphylococcus epidermidis, 18 h
[14] = system: S. epidermidis 5253; assay: MIC, twofold microdilution, clinical strain; format: cell-based, Staphylococcus epidermidis; conditions: for MIC: Staphylococcus epidermidis, 5253, 18 h
[15] = system: S. epidermidis KR4243/1; assay: MIC, twofold microdilution, clinical strain; format: cell-based; conditions: Staphylococcus epidermidis, 18 h
[16] = system: S. pasteuri KR 4358; assay: MIC, twofold microdilution, clinical strain; format: cell-based; conditions: Staphylococcus pasteuri, KR4358, 18 h
[17] = system: P. aeruginosa 37; assay: MIC, twofold microdilution, clinical strain; format: cell-based; conditions: Pseudomonas aeruginosa, 18 h
[18] = system: P. aeruginosa 659; assay: MIC, twofold microdilution, clinical strain; format: cell-based; conditions: Pseudomonas aeruginosa, 18 h
[19] = system: E. coli 951; assay: MIC, twofold microdilution, clinical strain; format: cell-based; conditions: Escherichia coli, 18 h
[20] = system: E. coli 520; assay: MIC, twofold microdilution, clinical strain; format: cell-based; conditions: Escherichia coli, 18 h
[21] = system: E. coli 600; assay: MIC, twofold microdilution, clinical strain; format: cell-based, Escherichia coli; conditions: Escherichia coli, 600, 18 h
[22] = system: E. cloacae 8; assay: MIC, twofold microdilution, clinical strain; format: cell-based, Escherichia cloacae; conditions: Enterobacter cloacae, 8; clinical strain, 18 h
[23] = system: K. pneumoniae 28; assay: MIC, twofold microdilution, clinical strain; format: cell-based; conditions: Klebsiella pneumoniae, 18 h
[24] = system: K. pneumoniae 510; assay: MIC, twofold microdilution, clinical strain; format: cell-based, Klebsiella pneumoniae; conditions: Klebsiella pneumoniae, 510; clinical strain, 18 h
[25] = system: M. tuberculosis H37Rv; assay: Tuberculostatic activity, Microplate Alamar Blue Assay (MIC); format: cell-based, Mycobacterium tuberculosis; conditions: Mycobacterium tuberculosis, H37RV; MABA; read-out: MIC M. tuberculosis H37Rv
[26] = system: M. tuberculosis Spec. 192; assay: as above; format: cell-based; conditions: Mycobacterium tuberculosis, MABA, read-out: MIC M. tuberculosis Spec. 192 (sensitive to tuberculostatics)
[27] = system: PC3 cells; assay: MTT assay, cytotoxic activity; format: cell-based, human; conditions: Homo sapiens, PC-3, 72 h, MTT, 72 h
Description: Metastatic prostate cancer (PC3) and human immortal keratinocyte (HaCaT) cell lines were purchased from the American Type Culture Collection (ATCC, Rockville, MD, USA) and cultured in MEM (minimal essential medium, Thermo Sci, USA), RPMI 1640 (Roswell Park Memorial Institute, Biowest SAS, France), and DMEM (Dulbecco’s Modified Eagle’s Medium, Biowest SAS, France). Cells were seeded in 6 mL medium in a tissue culture flask (50 mL) in a 37 °C/5% CO2 humidified incubator. […] MTT analysis was performed according to a previous study.[59] Untreated cells were used as controls. Cell absorbance results were inserted into the formula for the relative MTT level (%). It allows to calculate the viability of cells under the influence of the tested compounds. Cell viability was expressed as the percentage of MTT reduction in cells treated with tested compounds compared to the control sample. The relative MTT level was calculated using the formula [100%] = A/B × 100% where A—the test sample absorbance and B—the control sample absorbance.

[28] = MTT assay, cytotoxic activity; format: cell-based; conditions: human
Description: Cells were seeded in 6 mL medium in a tissue culture flask (50 mL) in a 37 °C/5% CO2 humidified incubator. […] MTT analysis was performed according to a previous study.[59] Untreated cells were used as controls. Cell absorbance results were inserted into the formula for the relative MTT level (%). It allows to calculate the viability of cells under the influence of the tested compounds. Cell viability was expressed as the percentage of MTT reduction in cells treated with tested compounds compared to the control sample. The relative MTT level was calculated using the formula [100%] = A/B × 100% where A—the test sample absorbance and B—the control sample absorbance.

[29] = system: clinical bacterial strains; assay: MIC, clinical isolates as groups of strains; format: cell-based
[30] = system: Staphylococci (standard strains); assay: MIC, standard Gram-positive strains as a panel; format: cell-based, S. aureus, S. epidermidis; conditions: standard Gram-positive strains of Table 1; read-out: MIC toward standard Staphylococci (range over strains)
[31] = HaCaT cells (immortal keratinocytes), MTT, 72 h, normal cell line, read-out: IC50 HaCaT

Structure (SMILES)	MIC [1]	MIC [2]	MIC [3]	MIC [4]	MIC [5]	MIC [6]	MIC [7]	MIC [8]	MIC [9]	MIC [10]	MIC [11]	MIC [12]	MIC [13]	MIC [14]	MIC [15]	MIC [16]	MIC [17]	MIC [18]	MIC [19]	IC50 [27]	also measured
O=C(O)c1cn(C2CC2)c2cc(N3CCN(C(=O)CC(F)(F)F)CC3)c(F)cc2c1=O [Compound 14, 7-[4-(3,3,3-Trifluoropropionyl)-piperazin-1-yl]-1-cyclopropyl-6-fluoro-4-oxo-1,4-dihydro-quinoline-3-carboxylic Acid]	0.4 mg/L (≈ 0.906 µM)	0.4 mg/L (≈ 0.906 µM)	0.4 mg/L (≈ 0.906 µM)	0.4 mg/L (≈ 0.906 µM)	0.4 mg/L (≈ 0.906 µM)	0.4 mg/L (≈ 0.906 µM)	> 25.6 mg/L	0.8 mg/L (≈ 1.81 µM)	0.5 mg/L (≈ 1.13 µM)	0.5 mg/L (≈ 1.13 µM)	0.1 to 0.2 mg/L (≈ 0.227 to 0.453 µM)	0.1 to 0.2 mg/L (≈ 0.227 to 0.453 µM)	> 25.6 mg/L	> 25.6 mg/L	0.1 mg/L (≈ 0.227 µM)	0.2 mg/L (≈ 0.453 µM)	> 25.6 mg/L	> 25.6 mg/L	> 25.6 mg/L	63.4 ± 5.3 µM	MIC S. aureus T5595 ([11]; 18 h): 0.2 mg/L (≈ 0.453 µM); MIC S. aureus T5591 ([12]; 18 h): 0.2 mg/L (≈ 0.453 µM); MIC [20]: 0.4 mg/L (≈ 0.906 µM); MIC [21]: 0.8 mg/L (≈ 1.81 µM); MIC [22]: 2 mg/L (≈ 4.53 µM); MIC [23]: > 25.6 mg/L; MIC [24]: > 25.6 mg/L; MIC [25]: 64 mg/L (≈ 145 µM); MIC [26]: 64 mg/L (≈ 145 µM); IC50 at 72 h [28, 31]: > 100 µM; times more powerful than CP ([29]; S. aureus T5595 and T5591): 1.25–2.5 times; MIC ([29]; clinical strains, read-out: MIC against selected E. coli and E. cloacae strains): 0.1 to 0.8 mg/L (≈ 0.227 to 1.81 µM)
O=C(O)c1cn(C2CC2)c2cc(N3CCN(CC(=O)N4CCN(c5cc6c(cc5F)c(=O)c(C(=O)O)cn6C5CC5)CC4)CC3)c(F)cc2c1=O [Compound 17, CP–Acetyl–CP Dimer]	0.4 mg/L (≈ 0.569 µM)	1.6 mg/L (≈ 2.28 µM)	0.2 mg/L (≈ 0.285 µM)	0.8 mg/L (≈ 1.14 µM)	0.2 mg/L (≈ 0.285 µM)	0.4 mg/L (≈ 0.569 µM)	> 25.6 mg/L	6.4 mg/L (≈ 9.11 µM)	1.6 mg/L (≈ 2.28 µM)	0.4 mg/L (≈ 0.569 µM)	0.8 mg/L (≈ 1.14 µM)	1.6 mg/L (≈ 2.28 µM)	25.6 mg/L (≈ 36.4 µM)	12.8 to 25.6 mg/L (≈ 18.2 to 36.4 µM)	0.2 mg/L (≈ 0.285 µM)	1.6 mg/L (≈ 2.28 µM)	> 25.6 mg/L	> 25.6 mg/L	> 25.6 mg/L	88.4 ± 10.6 µM	MIC S. epidermidis 5253 ([14]; 18 h): 25.6 mg/L (≈ 36.4 µM); MIC [20]: 3.2 mg/L (≈ 4.55 µM); MIC [21]: 12.8 mg/L (≈ 18.2 µM); MIC [22]: 25.6 mg/L (≈ 36.4 µM); MIC [23]: > 25.6 mg/L; MIC [24]: > 25.6 mg/L; MIC [25]: 32 mg/L (≈ 45.5 µM); MIC [26]: 32 mg/L (≈ 45.5 µM); IC50 at 72 h [28, 31]: 41.3 ± 5.2 µM; MIC [30]: 0.2 to 1.6 mg/L (≈ 0.285 to 2.28 µM)
O=C(O)c1cn(C2CC2)c2cc(N3CCN(CCCCCC(=O)N4CCN(c5cc6c(cc5F)c(=O)c(C(=O)O)cn6C5CC5)CC4)CC3)c(F)cc2c1=O [Compound 20, CP–Hexanoyl–CP Dimer]	1.6 mg/L (≈ 2.11 µM)	1.6 mg/L (≈ 2.11 µM)	1.6 mg/L (≈ 2.11 µM)	1.6 mg/L (≈ 2.11 µM)	1.6 mg/L (≈ 2.11 µM)	1.6 mg/L (≈ 2.11 µM)	> 25.6 mg/L	6.4 mg/L (≈ 8.43 µM)	1 mg/L (≈ 1.32 µM)	1 mg/L (≈ 1.32 µM)	0.8 mg/L (≈ 1.05 µM)	0.8 mg/L (≈ 1.05 µM)	> 25.6 mg/L	> 25.6 mg/L	0.8 mg/L (≈ 1.05 µM)	0.8 mg/L (≈ 1.05 µM)	> 25.6 mg/L	> 25.6 mg/L	> 25.6 mg/L	69.9 ± 7.2 µM	MIC [20]: 12.8 mg/L (≈ 16.9 µM); MIC [21]: 12.8 mg/L (≈ 16.9 µM); MIC [22]: > 25.6 mg/L; MIC [23]: > 25.6 mg/L; MIC [24]: > 25.6 mg/L; MIC [25]: 32 mg/L (≈ 42.2 µM); MIC [26]: 16 mg/L (≈ 21.1 µM); IC50 at 72 h [28, 31]: 89.5 ± 5.9 µM
COc1cccc2c1C(=O)c1c(O)c3c(c(O)c1C2=O)C[C@@](O)(C(=O)CO)C[C@@H]3O[C@H]1C[C@H](N)[C@H](O)[C@H](C)O1 [doxorubicin, reference compound]																				0.3 ± 0.12 µM	IC50 at 72 h [28]: 0.3 ± 0.11 µM
